Data: PubChem BioAssay (NCI)
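Where inhibition never reached the appropriate level, the endpoint shown equals the highest concentration tested. Otherwise, values were interpolated linearly from a five-concentration, 48-hour dose response in 96-well plates. Definition used: TGI = concentration required for complete inhibition of growth.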

Key:
Assay in all cases: DTP human tumour cell line panel, 48 h
MALME-3M melanoma = test system: MALME-3M melanoma
M14 melanoma = test system: M14 melanoma
SNB-19 CNS = test system: SNB-19 CNS
CAKI-1 renal = test system: CAKI-1 renal
HCT-15 colon = test system: HCT-15 colon
HCT-116 colon = test system: HCT-116 colon
UO-31 renal = test system: UO-31 renal
TK-10 renal = test system: TK-10 renal
M19-MEL melanoma = test system: M19-MEL melanoma
DMS 114 small cell lung = test system: DMS 114 small cell lung
OVCAR-5 ovarian = test system: OVCAR-5 ovarian
T-47D breast = test system: T-47D breast
MDA-MB-435 = test system: MDA-MB-435
SK-MEL-28 melanoma = test system: SK-MEL-28 melanoma
EKVX NSCLC = test system: EKVX NSCLC
HOP-62 NSCLC = test system: HOP-62 NSCLC
DU-145 prostate = test system: DU-145 prostate
U251 CNS = test system: U251 CNS
SF-295 CNS = test system: SF-295 CNS
HOP-92 NSCLC = test system: HOP-92 NSCLC
HS 578T breast = test system: HS 578T breast
SNB-78 CNS = test system: SNB-78 CNS
ACHN renal = test system: ACHN renal
SNB-75 CNS = test system: SNB-75 CNS
HCC-2998 colon = test system: HCC-2998 colon
SK-OV-3 ovarian = test system: SK-OV-3 ovarian
OVCAR-4 ovarian = test system: OVCAR-4 ovarian
OVCAR-8 ovarian = test system: OVCAR-8 ovarian
NCI-H23 lung = test system: NCI-H23 lung
SF-268 CNS = test system: SF-268 CNS
KM12 colon = test system: KM12 colon
MDA-MB-231 breast = test system: MDA-MB-231 breast
786-0 renal = test system: 786-0 renal
A549 NSCLC = test system: A549 NSCLC
SF-539 CNS = test system: SF-539 CNS
HOP-18 NSCLC = test system: HOP-18 NSCLC
RXF 393 renal = test system: RXF 393 renal
RPMI-8226 leukemia = test system: RPMI-8226 leukemia
HT29 colon = test system: HT29 colon
DMS 273 small cell lung = test system: DMS 273 small cell lung
MCF7 breast = test system: MCF7 breast
COLO 205 colon = test system: COLO 205 colon
SW-620 colon = test system: SW-620 colon
NCI-H460 lung = test system: NCI-H460 lung
K-562 leukemia = test system: K-562 leukemia
LXFL 529 NSCLC = test system: LXFL 529 NSCLC
NCI/ADR-RES ovarian = test system: NCI/ADR-RES ovarian
SN12C renal = test system: SN12C renal
BT-549 breast = test system: BT-549 breast
SK-MEL-2 melanoma = test system: SK-MEL-2 melanoma
UACC-257 melanoma = test system: UACC-257 melanoma
OVCAR-3 ovarian = test system: OVCAR-3 ovarian
DLD-1 colon = test system: DLD-1 colon
MDA-N = test system: MDA-N
NCI-H226 lung = test system: NCI-H226 lung
XF 498 CNS = test system: XF 498 CNS
HL-60(TB) leukemia = test system: HL-60(TB) leukemia
NCI-H522 lung = test system: NCI-H522 lung
SR leukemia = test system: SR leukemia
SK-MEL-5 melanoma = test system: SK-MEL-5 melanoma
KM20L2 colon = test system: KM20L2 colon
MOLT-4 leukemia = test system: MOLT-4 leukemia
UACC-62 melanoma = test system: UACC-62 melanoma
CCRF-CEM leukemia = test system: CCRF-CEM leukemia
LOX IMVI melanoma = test system: LOX IMVI melanoma
A498 renal = test system: A498 renal
IGROV1 ovarian = test system: IGROV1 ovarian

## C/C(=N\NC(=S)NNC(=S)N(C)c1ccccc1)c1ccccn1
MALME-3M melanoma
  TGI: 20.3 µM
M14 melanoma
  TGI: 2.56 µM
SNB-19 CNS
  TGI: > 100 µM
CAKI-1 renal
  TGI: 8.39 µM
HCT-15 colon
  TGI: > 100 µM
HCT-116 colon
  TGI: > 100 µM
UO-31 renal
  TGI: 7.59 µM
TK-10 renal
  TGI: > 100 µM
M19-MEL melanoma
  TGI: 7.59 µM
DMS 114 small cell lung
  TGI: 12.6 µM
OVCAR-5 ovarian
  TGI: > 100 µM
T-47D breast
  TGI: 72.8 µM
MDA-MB-435
  TGI: 25.6 µM
SK-MEL-28 melanoma
  TGI: > 100 µM
EKVX NSCLC
  TGI: 10.7 µM
HOP-62 NSCLC
  TGI: > 100 µM
DU-145 prostate
  TGI: > 100 µM
U251 CNS
  TGI: > 100 µM
SF-295 CNS
  TGI: > 100 µM
HOP-92 NSCLC
  TGI: 26.6 µM
HS 578T breast
  TGI: > 100 µM
SNB-78 CNS
  TGI: > 100 µM
ACHN renal
  TGI: > 53.6 µM
SNB-75 CNS
  TGI: > 100 µM
HCC-2998 colon
  TGI: > 100 µM
SK-OV-3 ovarian
  TGI: > 83.8 µM
OVCAR-4 ovarian
  TGI: > 100 µM
OVCAR-8 ovarian
  TGI: > 100 µM
NCI-H23 lung
  TGI: > 100 µM
SF-268 CNS
  TGI: > 89 µM
KM12 colon
  TGI: > 100 µM
MDA-MB-231 breast
  TGI: > 100 µM
786-0 renal
  TGI: > 47.2 µM
A549 NSCLC
  TGI: > 100 µM
SF-539 CNS
  TGI: 11.1 µM
HOP-18 NSCLC
  TGI: 0.732 µM
RXF 393 renal
  TGI: 17 µM
RPMI-8226 leukemia
  TGI: > 30.4 µM
HT29 colon
  TGI: > 100 µM
DMS 273 small cell lung
  TGI: > 100 µM
MCF7 breast
  TGI: > 100 µM
COLO 205 colon
  TGI: > 100 µM
SW-620 colon
  TGI: > 100 µM
NCI-H460 lung
  TGI: 29.5 µM
K-562 leukemia
  TGI: > 100 µM
LXFL 529 NSCLC
  TGI: > 100 µM
NCI/ADR-RES ovarian
  TGI: 55.4 µM
SN12C renal
  TGI: 12.8 µM
BT-549 breast
  TGI: > 100 µM
SK-MEL-2 melanoma
  TGI: > 100 µM
UACC-257 melanoma
  TGI: > 100 µM
OVCAR-3 ovarian
  TGI: > 100 µM
DLD-1 colon
  TGI: > 100 µM
MDA-N
  TGI: > 100 µM
NCI-H226 lung
  TGI: 6.85 µM
XF 498 CNS
  TGI: > 100 µM

## c1ccc2c3c([nH]c2c1)C1(CCCCC1)c1c([nH]c2ccccc12)C31CCCCC1
HL-60(TB) leukemia
  TGI: > 100 µM
MALME-3M melanoma
  TGI: 80.1 µM
M14 melanoma
  TGI: > 100 µM
SNB-19 CNS
  TGI: > 100 µM
CAKI-1 renal
  TGI: > 100 µM
HCT-15 colon
  TGI: > 100 µM
HCT-116 colon
  TGI: 37.1 µM
UO-31 renal
  TGI: > 100 µM
TK-10 renal
  TGI: 88.7 µM
M19-MEL melanoma
  TGI: > 100 µM
DMS 114 small cell lung
  TGI: > 100 µM
OVCAR-5 ovarian
  TGI: > 100 µM
NCI-H522 lung
  TGI: > 100 µM
SR leukemia
  TGI: 58.9 µM
SK-MEL-28 melanoma
  TGI: > 100 µM
EKVX NSCLC
  TGI: 61.7 µM
HOP-62 NSCLC
  TGI: 54.8 µM
SK-MEL-5 melanoma
  TGI: 85.2 µM
U251 CNS
  TGI: 97.6 µM
SF-295 CNS
  TGI: 56.8 µM
HOP-92 NSCLC
  TGI: 46.6 µM
SNB-78 CNS
  TGI: 45.4 µM
ACHN renal
  TGI: 59 µM
SNB-75 CNS
  TGI: 36.5 µM
KM20L2 colon
  TGI: > 100 µM
MOLT-4 leukemia
  TGI: > 100 µM
UACC-62 melanoma
  TGI: 64.5 µM
CCRF-CEM leukemia
  TGI: > 100 µM
HCC-2998 colon
  TGI: 85.6 µM
SK-OV-3 ovarian
  TGI: 49.6 µM
OVCAR-4 ovarian
  TGI: 26 µM
OVCAR-8 ovarian
  TGI: 50.4 µM
NCI-H23 lung
  TGI: > 100 µM
SF-268 CNS
  TGI: 95.4 µM
KM12 colon
  TGI: > 100 µM
786-0 renal
  TGI: 32.2 µM
A549 NSCLC
  TGI: > 100 µM
HOP-18 NSCLC
  TGI: 68.2 µM
RXF 393 renal
  TGI: 89.4 µM
RPMI-8226 leukemia
  TGI: > 100 µM
HT29 colon
  TGI: > 100 µM
DMS 273 small cell lung
  TGI: 59 µM
COLO 205 colon
  TGI: > 100 µM
SW-620 colon
  TGI: > 100 µM
NCI-H460 lung
  TGI: > 100 µM
K-562 leukemia
  TGI: > 100 µM
LXFL 529 NSCLC
  TGI: > 100 µM
SN12C renal
  TGI: > 100 µM
LOX IMVI melanoma
  TGI: > 100 µM
A498 renal
  TGI: 54 µM
SK-MEL-2 melanoma
  TGI: 48.1 µM
UACC-257 melanoma
  TGI: > 100 µM
OVCAR-3 ovarian
  TGI: > 100 µM
IGROV1 ovarian
  TGI: > 100 µM
DLD-1 colon
  TGI: > 100 µM
NCI-H226 lung
  TGI: 97.1 µM
XF 498 CNS
  TGI: > 100 µM
